Data from US12594256B2, “A19-144, A2-73 and certain anticholinesterase inhibitor compositions and method for anti-seizure therapy” (priority 2014, dated 2026).
pIC50: −log10 of the molar value. Read-outs that look alike come from different tables or passages of the source.

Columns and labels:
[1] = Pharmacokinetics of metabolite AV19-144 in plasma after oral AV2-73 (LC-MS/MS); format: in vivo; conditions: for MRT: read-out: mean residence time of AV19-144
Protocol: After separation from human plasma analytes were injected into a LC-MS/MS. […] A weighted (1/x) regression 2nd order was performed to determine the concentration of the analytes. The study was conducted in accordance with the Principles of Good Laboratory Practice (GLP) as described under § 19, German Chemical Law. The validation based on the EG-Dok.

seizures = assay: Seizure prophylaxis in single subjects (Examples 1-6); format: in vivo, human
Protocol: A person is experiencing 4 to 7 seizures per day with a baseline of 6.6 seizures per day. A19-144 is administered daily at 2.0 mg for 5 days.
The subject is administered low dose donepezil (4 mg daily) for 5 days cotimely with continued A19-144 administration daily at 2.0 mg for 5 days.
A person is experiencing 6 to 8 seizures per day with a baseline of 6.6 seizures per day. A19-144 is administered daily at 2.0 mg for 5 days.
The subject is administered low dose Eslicarbazepine acetate at 600 mg/day; for 5 days cotimely with continued A19-144 administration daily at 2.0 mg for 5 days.
A person is experiencing seizures 3.2 per day. The subject is administered lacosamide at 60 mg two times per day for 5 days and cotimely administration of A19-144 daily at 2.0 mg for 5 days.
The person is experiencing an average of 3.3 seizures per day. The subject is administered Levetiracetam at 400 mg two times per day for 5 days and cotimely administration of 3.0 mg of A19-144 daily for 5 days.

[2] = tested on: muscarinic acetylcholine receptors; conditions: believed to bind; cited from earlier work
Aβ25-35-induced toxicity [3] = assay: Aβ25-35 model, pre- and post-peptide administration schedules (Y maze, passive avoidance, hippocampal lipid peroxidation); format: in vivo, mice; conditions: for anti-amnesic and neuroprotective effect against amyloid toxicity: drug administered before or after the amyloid peptide challenge
Aβ25-35-induced toxicity [4] = conditions: cited from earlier work
sigma-1 receptors = sigma-1 receptors (Homo sapiens, UniProt Q99720); conditions: believed to bind; cited from earlier work
NMDA receptors = conditions: screening profile; cited from earlier work
σ2 sites = σ2 sites (Homo sapiens, UniProt Q5BJF2); conditions: reported binding analyses; cited from earlier work
sodium channel site 2 = conditions: screening profile; cited from earlier work
σ1 = σ1 (Homo sapiens, UniProt Q99720); conditions: as compared with σ1 sites (so in the source); cited from earlier work
[5] = biological target: muscarinic M1-M4 receptors; conditions: screening profile; cited from earlier work
[6] = 0.3 mg/kg ip once a day, day 7 to day 13 after Aβ25-35, measured 14 days after Aβ25-35
[7] = 0.1 or 0.3 mg/kg ip once a day, day -7 to day -1 before Aβ25-35, 7 days after Aβ25-35

Sequence of σ2 sites (Q5BJF2 whole entry): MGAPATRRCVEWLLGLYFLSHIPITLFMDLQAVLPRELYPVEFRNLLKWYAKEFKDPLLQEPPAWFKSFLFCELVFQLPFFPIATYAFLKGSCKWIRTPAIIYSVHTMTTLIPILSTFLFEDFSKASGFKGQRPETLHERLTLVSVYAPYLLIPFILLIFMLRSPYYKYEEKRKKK
Sequence of σ1 (Q99720 whole entry): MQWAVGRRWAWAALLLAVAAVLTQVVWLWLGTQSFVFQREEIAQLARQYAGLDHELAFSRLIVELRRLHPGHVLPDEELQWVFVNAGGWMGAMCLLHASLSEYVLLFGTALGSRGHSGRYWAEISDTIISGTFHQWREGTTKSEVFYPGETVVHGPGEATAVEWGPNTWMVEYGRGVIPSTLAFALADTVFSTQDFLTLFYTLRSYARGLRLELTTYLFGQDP
Sequence of sigma-1 receptors (Q99720 whole entry): as above

CNCC1CCOC1(c1ccccc1)c1ccccc1.Cl (centres unmarked) [A19-144, 1-(2,2-diphenyltetrahydrofuran-3-yl)-N-methylmethanamine hydrochloride]
Cmax ([1]; human, oral, across the 10 to 60 mg AV2-73 dose steps, plasma, FIG. 1): 1.31 to 22.3 ng/mL
half-life ([1]; human, oral, across the 10 to 60 mg AV2-73 dose steps, plasma, FIG. 1, read-out: mean terminal elimination half-life t1/2 of AV19-144): 8.56 to 28.7 h
MRT ([1]; human, plasma, oral, after 10 mg AV2-73, FIG. 2): 14.3 h
MRT ([1]; human, plasma, oral, after 60 mg AV2-73, FIG. 2): 42.7 h
seizures per day (seizures; Example 1: person, baseline 6.6 per day, 2.0 mg daily for 5 days, for 8 weeks post dosing): 2.2 per day
seizures per day (seizures; Example 3: person, baseline 6.6 per day, 2.0 mg daily for 5 days, for 8 weeks post dosing): 1.2 per day
seizures per day (seizures; person of Example 1, at 6 months post dosing): 2.2 per day
seizures per day (average) (seizures; person of Example 3, at 6 months post dosing): 1.2 per day
affinity for muscarinic acetylcholine receptors [2]: low micromolar range
lipid peroxidation increase (Aβ25-35-induced toxicity [3]; [6]): effective
memory deficits (Aβ25-35-induced toxicity [3]; [6]): effective
Aβ25-35-induced lipid peroxidation in the hippocampus (Aβ25-35-induced toxicity [3]; [7]): blocks
Aβ25-35-induced memory deficits (spontaneous alternation in the Y maze and passive avoidance response) (Aβ25-35-induced toxicity [3]; [7]): blocks
anti-amnesic and neuroprotective effect against amyloid toxicity (Aβ25-35-induced toxicity [3]): effective in pre- and post-protection
Aβ25-35-induced toxicity and learning impairments (Aβ25-35-induced toxicity [3]; injected repeatedly one week after the peptide): able to reverse
Aβ25-35-induced P-Akt decrease and P-GSK-3β increase (Aβ25-35-induced toxicity [4]; Lahmy et al. 2013): blocked
hyperphosphorylation of Tau on physiological (AT-8) and pathological (AT-100) epitopes (Aβ25-35-induced toxicity [4]; in the dose-range tested): attenuated
oxidative stress, caspases induction, cellular loss and learning and memory deficits (Aβ25-35-induced toxicity [4]; mice one week after injection of oligomeric Aβ25-35 (Villard et al. 2011)): attenuating
neuroprotection against amyloid toxicity (Aβ25-35-induced toxicity [4]; mice, reported): neuroprotective potential
affinity for sigma-1 receptors (sigma-1 receptors): low micromolar range

CN(C)CC1CCOC1(c1ccccc1)c1ccccc1.Cl (centres unmarked) [A2-73, 1-(2,2-diphenyltetrahydrofuran-3-yl)-N,N-dimethylmethanamine hydrochloride]
pIC50 (NMDA receptors): 5.10
biotransformation of AV2-73 to main metabolite AV19-144 ([1]; after oral administration): rapid and extensive biotransformation
affinity for σ2 sites (σ2 sites): no affinity
pIC50 (sodium channel site 2): 5.29
results of Examples 1 through 6 (seizure prophylaxis) (seizures; A2-73 substituted for A19-144): similarly effective
anti-amnesic and neuroprotective effect against amyloid toxicity (Aβ25-35-induced toxicity [3]): effective in pre- and post-protection
selectivity for the σ1 subtype (σ1): better selectivity for the σ1 subtype
pIC50 [5]: 5.28 to 5.48
Aβ25-35-induced endogenous Aβ1-42 seeding (Aβ25-35-induced toxicity [4]; reported): decreasing
